Earlier results on one molecule are cited in patent CN101129366A, “一种尼莫地平药物组合物及其制备方法” (Beijing Zhonghaikang Medical Technology Development Co Ltd, priority 2007, dated 2008).

The conditions of this series: drug substance.

As for `COCCOC(=O)C1=C(C)NC(C)=C(C(=O)OC(C)C)C1c1cccc([N+](=O)[O-])c1` (stereo not shown) [尼莫地平], under “acetone, chloroform”, the “solubility in acetone and chloroform” value is “易溶”. Also, the solubility in ethanol entry (ethanol) was “溶解”. Also, the “solubility in diethyl ether” value (ether) is recorded as “微溶”. Besides, the solubility in water entry (water) was “不溶”.
